# Test results from patent US12533327B2, “Hexylamine salts and methods of using hexylamine” (priority 2019, dated 2026).
# Where a name gives a salt, the structure may show the parent alone.
# Assays:
# [1] = Organoleptic properties and contact irritation of hexylamine and its salts
# [2] = Citrate salts left exposed to air for one day; format: physicochemical
# Text: FIG. 2 depicts a comparison of monohexylamine citrate and tri-hexylamine citrate after being left exposure to air for one day.
# [3] = Pharmacotechnical properties of synthesized hexylamine salts (state, hygroscopicity, solubility, dissolution, stability)
# [4] = Physiological effects of propylamine and amylamine; format: in vivo; conditions: doses starting at 300 mg
# Text: Propylamine, […], a close chemical entity to hexylamine, has been used in the distant past as a sedative at doses of 2-10 grams (Page 892 of The Standard Medical Directory of North America 1902, GP Engelhard and Company, Chicago). […] Accordingly, compound having similar structure to hexylamine were expected to reduce alertness and cognitive function due to their sedative effects (from de facto slowdown of brain activity).
# [5] = cited from earlier work
# human subjects [6] = format: in vivo
# Description: Five human subjects were given 100-600 mg hexylamine succinate each day over a period of a month or four weeks (see Table 1).
# Over the course of the treatment period, two of the subjects who ingested hexylamine daily experienced a weight loss of 3 pounds without making any changes to their diet or exercise regimen. With the administration of 600 mg hexylamine succinate (equaling 276 mg of hexylamine base), the subjects' body temperature would rise by about 0.5° C.
# None of the subjects experienced any of the toxic side effects described for too much exposure hexylamine, which include, burning sensation, abdominal pain, shock, or collapse. However, the effectiveness would diminish with doses less than 100 mg.
# [7] = Storage of hexylamine succinate in the atmosphere, water gain; format: physicochemical; conditions: over one week of storage
# Description: Hexylamine succinate (structure shown in Formula II) was effectively synthesized by pouring an equimolar amount of hexylamine into succinic acid powder while continuously stirring in an ice bath so that the temperature of the salt solution would be […].
# human subject = assay: Human tolerance of hexylamine succinate; format: in vivo; conditions: one subject, 250 lbs, daily dose increased from 100 mg
# Description: A human subject (250 lbs) was administered a single 100 mg hexylamine succinate, and their tolerance to the salt was record. The daily dose was increased increased daily to determine the highest daily dose that could be tolerance by the subject. At a daily dose of 800 mg and higher, the subject reported side effects such as feelings of discomfort.
# [8] = Shelf life comparison, salts left exposed to air for a month; format: physicochemical
# Text: FIG. 1 depicts a comparison of hexylamine succinate and hexylamine tartrate after being left exposed to air for a period of a month.
# Hexylamine succinate and hexylamine tartrate were left exposed for a period of a month.
# [9] = Time course of tri-hexylamine citrate in water; format: physicochemical; conditions: one gram scattered over 100 ml water at room temperature
# Description: FIG. 3 depicts a time course of tri-hexylamine citrate in water. One gram of tri-hexylamine citrate was scattered over 100 ml water at room temperature (left). About one minute after, all of the tri-hexylamine citrate was dissolved (right).
# human subjects [10] = assay: Psychomotor vigilance test via sleep-2-Peak mobile application; format: in vivo; conditions: 1000 mg oral vs placebo, p=0.0015
# Text: Statistically significant results were obtained from the cognitive function tests.
# human subjects [11] = test system: human subjects
# human subjects [12] = assay: Activity of hexylamine salt forms on human subjects; format: in vivo; conditions: taken as a capsule, compared with other salts of hexylamine
# human subjects [13] = assay: Effect of tri-hexylamine citrate on physical performance; format: in vivo; conditions: four subjects, 1000 mg 30 minutes before exercise
# Description: Four human subjects ingested 1000 mg tri-hexylamine citrate 30 minutes before performing their regular exercise.
# human subjects [14] = assay: Administration of […] and caffeine, caffeine side effects; conditions: same subjects, 300 mg caffeine alone
# [15] = standard temperature and pressure; cited from earlier work
# human subjects [16] = assay: Iowa trail making test; format: in vivo; conditions: 1000 mg tri-hexylamine citrate oral vs placebo
# Text: The Iowa trail making test assesses visual attention and task switching. In map A, the subject is to draw lines to connect circled numbers in a numerical sequence (1-2-3- . . . ) as rapidly in possible. In map B, the subject is to draw lines to connect circled numbers and letters in an alternating numeric and alphabetic sequence (1-A-2-B- . . . ) as rapidly as possible. Accordingly, map A assesses cognitive processing speed, while map B asses executive function. If the subject makes an error, it was immediately pointed it out and the subject was allowed correct it. Accordingly, errors affect the score only in that the correction of errors is included in the completion time for the task. […] Thus, hexylamine administration improves executive function.
# human = conditions: cited from earlier work
# [17] = five subjects, 100-600 mg each day for a month
smiles,measurement,setting,value
O=[N+]([O-])O [nitrate],"effect on contact with skin, tongue or mouth",[1],very irritating on contact with the skin or mouth
CCCCCCN.O=C(O)CC(O)(CC(=O)O)C(=O)O [mono-hexylamine citrate],state of the salt,[2],hardened into a solid mass
same,dissolution rate in water,[3],much slower dissolution rate in water
same,hygroscopicity,[3],very hygroscopic
"CCCCCN [amylamine, Amylamine]",body temperature,[4],a drop in body temperature
same,heart rate,[4],reduction in heart rate
same,"cardiac function, heartbeat and body temperature",[5]; King's American Dispensatory 1909,"reduce cardiac function, reduce heartbeat, and reduce body temperature"
CCCCCCN.O=C(O)CCC(=O)O [Hexylamine succinate],hygroscopicity,[3],non-hydroscopic
same,solubility in water,[3],good solubility and dissolution rate
same,rise of body temperature,human subjects [6]; 600 mg hexylamine succinate (276 mg hexylamine base),about 0.5 °C
same,appetite,human subjects [6]; [17],reduced appetite
same,athletic performance,human subjects [6]; [17],increase in athletic performance
same,body temperature,human subjects [6]; [17],increased body temperature
same,endurance,human subjects [6]; [17],increase in endurance
same,fatigue,human subjects [6]; [17],reduction of fatigue
same,heart rate,human subjects [6]; [17],increase in heart rate
same,"increase in diastolic blood pressure, average",human subjects [6]; [17],2 mm
same,"increase in systolic blood pressure, average",human subjects [6]; [17],8 mm
same,memory recollection,human subjects [6]; [17],improved memory recollection
same,mental acuity,human subjects [6]; [17],increased mental acuity
same,mood,human subjects [6]; [17],improved mood
same,strength,human subjects [6]; [17],increase in strength
same,sweating,human subjects [6]; [17],increased sweating
same,hygroscopicity,[7],non-hygroscopic
same,water gained in the atmosphere,[7],less than 1%
same,daily dose at which side effects such as feelings of discomfort were reported,human subject,≥ 800 mg
same,state of the powder and moisture uptake,[8],remained a fine powder and gained little moisture
CCCCCCN.O=C(O)C(O)C(O)C(=O)O (stereo not shown) [hexylamine tartrate],state of the powder and moisture uptake,[8],absorbed moisture from the atmosphere and suffered from extensive caking
CCCCCCN [tri-hexylamine citrate],state of the salt,[2],suffered from some caking
same,dissolution rate in water,[3],dissolves faster than all other salts of hexylamine in water
same,stability of the salt,[3],very stable salt
same,time until all was dissolved,[9],About one
same,change of average reaction time,human subjects [10],-70.1 ms
same,reduction of average reaction time,human subjects [10],18%
same,"diastolic pressure, group",human subjects [11]; 1000 mg oral vs placebo,no significant difference
same,"heart rate, group",human subjects [11]; 1000 mg oral vs placebo,no significant difference
same,"systolic blood pressure, group",human subjects [11]; 1000 mg oral vs placebo,no significant difference
same,self-mood assessment test,"human subjects [11]; 1000 mg oral vs placebo, scale 1-10",did not show any statistically significant results
same,blood pressure,"human subjects [11]; 1000 mg oral vs placebo, up to 50 minutes after administration",largely unaffected
same,onset of effect,human subjects [12],has a faster effect on human subjects
same,"focus and energy, self-reported",human subjects [13],feeling more focused and energetic
same,sense of fatigue during and after exercise,human subjects [13],reduced sense of fatigue
same,repetitions on knee extensions and bench press,human subjects [13]; vs no supplement,greater number of repetitions
same,time to exhaustion on the treadmill,human subjects [13]; vs no supplement,longer time to exhaustion
Cn1c(=O)c2c(ncn2C)n(C)c1=O [caffeine],jittery sensation or caffeine crash,human subjects [14],experience at leas tone of these side effects
CCCN [Propylamine],physiological use,[5]; doses of 2-10 grams (Standard Medical Directory of North America 1902),sedative
CCCCCCN [Hexylamine],solubility in organic solvents,[15],soluble in almost all organic solvents
same,discomfort or serious side effects,"human subjects [11]; twelve healthy subjects, 1000 mg oral, blinded crossover vs placebo",None of the subjects experienced any discomfort or any serious side effect
same,"average completion time, map A",human subjects [16]; not statistically significant,reduced the average time
same,"change of average completion time, map B",human subjects [16]; p=0.0020,-12.5 s
same,toxicity label,"human; Phytochemical Dictionary, second edition",highly toxic in any quantity
same,blood pressure and other physiological effects,human; administered to a human (Alles 1941),no change in blood pressure or any other physiological effect was observed
same,tolerability,"human subjects [6]; five subjects, none had toxic side effects (burning sensation, abdominal pain, shock, collapse)",generally well-tolerated
same,dose below which the effectiveness would diminish,"human subjects [6]; human, in vivo",less than 100 mg
same,weight loss,"human subjects [6]; two of the subjects, daily ingestion over the treatment period, no change of diet or exercise",3 pounds
